The text below walks through data of patent US5332734A, “Oxazinone derivative” (Japan Tobacco, Incorporated, priority 1991, dated 1994).

Broadly, the IC50 is the concentration needed to halve the response being measured. High values mean weaker potency, low ones greater potency. One may read the inhibition as the percentage by which the read-out fell short of the control.

Assay [1] has as its target T1, bovine pancreatic trypsin (TRY) (Bos taurus, UniProt P00760).
T1 construct: purchased Sigma Inc; host or cells: bovine pancreas (by its name)
T1 sequence (P00760 24-246): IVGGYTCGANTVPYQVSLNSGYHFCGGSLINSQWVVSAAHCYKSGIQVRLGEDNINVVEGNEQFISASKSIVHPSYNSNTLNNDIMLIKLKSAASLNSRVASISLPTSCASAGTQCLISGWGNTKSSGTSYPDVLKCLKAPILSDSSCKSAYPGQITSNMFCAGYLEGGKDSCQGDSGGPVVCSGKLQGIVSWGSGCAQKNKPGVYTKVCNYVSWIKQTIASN
Kind of assay: TRY inhibitory activity. The class given is biochemical. To be noted: TRY 25 nM, substrate 1.0 mM, pH 7.5. As for the experimental part: Inhibotory activities of the oxadinone derivative of the present invention against human leukocyte elastase (HLE), human sputum elastase (HSE), human cathepsin G (HCG), bovine pancreatic α-chymotrypsin (CYT) and bovine pancreatic trypsin (TRY) were measured as follows:
(5) Measurement of TRY Inhibitory Activity
a) Enzyme Preparing Method Bought from Sigma Inc.
Employed was a measuring method similar to that described previously in conjunction with the measurement of the HLE inhibiting activity, except that used was a buffer solution of pH 7.5. The final concentrations of TRY and the synthetic substrate (Z-Arg-pNA; FUNAKOSHI) in the solution of the enzyme reaction were 25 nM and 1.0 mM, respectively.

Another assay relates to human neutrophils. Kind of assay: Activity for suppressing chemotaxis of human neutrophils (fMLP). The class given is cell-based. As to conditions: Neutrophil, 1 h, one hour. As for the experimental part:
Test 2: Activity of the Invented Compound for Suppressing Chemotaxis of Human Neutrophils
A neutrophil fraction (60% percoal fraction having neutrophil purity of at least 90%) was obtained from a human peripheral blood by a percoal density gradient centrifugal separation (2300 rpm, 20 minutes).
1300 μl of a culture medium containing 10^-7 M of fMLP (formylmethionyloycyl-phenylalanine), which is a neutrophil chemotaxis factor, was added in advance to each well of a chemotaxis chamber (KURABO). An inter cell having pores 5 μm in diameter and containing 8×10^5 neutrophils and the compound of the present invention adjusted at a desired concentration was disposed in the chemotaxis chamber. After culturing for one hour at 37° C. within a culturing device containing 5% of carbon dioxide gas, the number of cells migrated from the upper side of inter cell membrane into the lower side of the membrane in the chamber was counted by the method described in the following. Specifically, the lower side surface of the inter cell membrane was washed 4 times with PBS. After fixing the washed surface with methanol, the cells were dyed with hematoxylin-eosine solution. Then, the membrane was removed from the inter cell and put on a sliding glass for air-drying, followed by sealing with Canada balsam. Under this condition, five areas selected at random of the membrane were microscopically observed so as to count the number of cells. An average of the number of cells within the five areas was calculated so as to determine the number of migrated cells.
The function of the invented compound for suppressing chemotaxis was determined by the formula given below, in which the value obtained by subtracting the number of migrating cells in the reference experiment in which fMLP was not added from the number of migrating cells in the experiment in which the compound of the present invention was not added was set at 100:
= 100 - (C - D)/(E - D) × 100
A: Chemotaxis in the case of containing the compound of the present invention;
B: Chemotaxis in the case of not containing the compound of the present invention;
C: The number of migrating cells in the case of adding the compound of the present invention, fMLP;
D: The number of migrating cells in the case of not adding fMLP; and
E: The number of migrating cells in the case of adding only fMLP.

In assay [2] the test system is neutrophil infiltration into carrageenin-induced air pouch inflammation. Kind of assay: Suppressing neutrophil infiltration into carrageenin-induced air pouch inflammation. Type of assay: in vivo, SD series male rats. To be noted: 17 μmol into air pouch, 5 hours; for Cell Infiltration Capability: control = 100. The protocol: Test: 3 Effect of the Invented Compound for Suppressing Neutrophil Infiltration into carrageenin-induced Air Pouch Inflammation
Groups of SD series male rats (5 five weeks old and each weighing 110 to 130 g) were used in this experiment, each group consisting of five rats. In the first step, an air bladder was formed on the back of the rat by hypodermic injection of 8 ml of air while anesthetizing the rat with either. Twenty-four hours later, 5 ml of a physiological saline containing 1% of carrageenin manufactured by Wako K.K. was injected into the air pouch. Promptly after the carrageenin injection, a solution prepared by dissolving the test material (compound of the present invention) in 200 μl of DMSO (dimethylsulfoxide) was administered to the air pouch on the back of the rat.
Five hours later, the rat was killed and the blood was released therefrom. Then, 5 ml of PBS containing 10 mM of EDTA (ethylenediamine tetraacetate) was injected into the air pouch. The exudate within the air bladder was washed and, then, recovered. A predetermined amount of the recovered exudate was measured by a colter counter so as to count the number of infiltrated cells.
The effect of the test material for suppressing the cell infiltration into the carrageenin induced inflammation was determined by the formula given below, in which the value obtained by subtracting the number of infiltrated cells in the experiment in which carrageenin was not administered from the number of infiltrated cells in the reference group in which a medicine was not administered was set at 100:
= 100 - (U - V)/(W - V) × 100
S: Cell infiltration capability in the case of containing the compound of the present invention;
T: Cell infiltration capability in the case of not containing the compound of the present invention;
U: The number of infiltrated cells in the case of administering the compound of the present invention and carrageenin;
V: The number of infiltrated cells in the case of not adding carrageenin; and
W: The number of infiltrated cells in the case of administering carrageenin only.

Bounds are passed on as bounds.

In turn, `Cc1cccc2nc([C@@H](NC(=O)OCC3c4ccccc4-c4ccccc43)C(C)C)oc(=O)c12` [Compound 1, 2-{1(S)-[(9-fluorenylmethoxycarbonyl)amino]-2-methylpropyl}-5-methyl-4H-3,1-benzoxazin-4-one] returned an IC50 in assay [1] of more than 6.89 µM. In the assay with human neutrophils (concentration 50 (μm), fMLP 10^-7 M), this compound gave an inhibition at 50 µM of 89%. Moreover, the activity at 50 µM in the assay with human neutrophils (concentration 50 (μm), without compound = 100, fMLP 10^-7 M) turned out to be 11%. Moreover, the inhibition at 100 µM in the assay with human neutrophils (concentration 100 (μm), fMLP 10^-7 M) was determined as 99%. Further, in the assay with human neutrophils (concentration 100 (μm), without compound = 100, fMLP 10^-7 M), the activity at 100 µM came to 1%. Further, in assay [2], the “Rate (%) of Suppressing Cell Infiltration” value is reported as 38% and the “Cell Infiltration Capability” value was 62.
In assay [1], `Cc1cccc2nc([C@H](CC(C)C)NC(=O)OCC3c4ccccc4-c4ccccc43)oc(=O)c12` [Compound 2, 2-{1(S)-[(9-fluorenylmethoxycarbonyl)amino]-3-methylbutyl}-5-methyl-4H-3,1-benzoxazin-4-one] returned an IC50 of more than 6.68 µM. Moreover, in assay [2], the “Rate (%) of Suppressing Cell Infiltration” value came to 24% and the “Cell Infiltration Capability” value is on record as 76.
